The target in assay [1] is T1, hPPARγ ligand binding domain (GST-hPPARγ LBD) (Homo sapiens, UniProt P37231).
T1 construct: GST-hPPARγ LBD (amino acids 175-476); made in house; host or cells: E. coli BL21(DE3), pGEX vector
T1 sequence (P37231 175-476 isoform P37231-2): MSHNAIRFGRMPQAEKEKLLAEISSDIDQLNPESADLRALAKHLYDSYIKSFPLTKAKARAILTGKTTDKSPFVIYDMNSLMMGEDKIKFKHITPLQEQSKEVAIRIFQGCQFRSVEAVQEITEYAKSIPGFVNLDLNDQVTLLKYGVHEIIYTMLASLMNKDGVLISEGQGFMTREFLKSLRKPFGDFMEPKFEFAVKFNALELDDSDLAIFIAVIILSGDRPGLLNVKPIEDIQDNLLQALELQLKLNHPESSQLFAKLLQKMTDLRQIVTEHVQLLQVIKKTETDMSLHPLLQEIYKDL
The assay can be described thus: PPARγ functional binding assay (CARLA, TR-FRET). The format is biochemical. The conditions noted are these: SRC-1 peptide recruitment, 3 hours at RT, read-out: EC50 in the PPARγ receptor binding assay. The protocol:
(§1) The in vitro functional binding to the PPARα, PPARδ and PPARγ receptors is determined as follows:
(§2) The functional binding assays for the PPARα, PPARδ and PPARγ receptors are a variation of the coactivator-dependent receptor ligand assay (CARLA) (see Krey et al., “Fatty Acids, Eicosanoids, and Hypolipidemic Agents Identified as Ligands of Peroxisome Proliferator-Activated Receptors by Coactivator-Dependent Receptor Ligand Assay”, Molecular Endocrinology, Vol. 11, pp. 779-791 (1997)). The present CARLA assays use a TR-FRET detection method previously reviewed (see Hemmila, “LANCE: Homogeneous Assay Plafform for HTS”, J. Biomol. Screening, Vol. 4, pp. 303-307 (1999); Mathis, “HTRF Technology”, J. Biomol. Screening, Vol. 4, pp. 309-313 (1999)). […] This brings the Eu-labeled anti-GST antibody and the strepavidin-labeled APC in close proximity, thereby facilitating fluorescence energy transfer. […] After mixing all components, the reaction mixture stands for 3 hours at RT before reading the TR-FRET (Time-Resolved Fluorescence Resonance Energy Transfer) signal on a Wallac Victor 2 plate reader (measuring the ratio of signals at […]). […]
For orientation: Time-resolved FRET reads energy transfer from a long-lived donor to a nearby acceptor.

Assay [2] addresses T2, hPPARα ligand binding domain (GST-hPPARα LBD) (Homo sapiens, UniProt Q07869).
T2 construct: made in house; host or cells: E. coli BL21(DE3), pGEX vector
T2 sequence (Q07869 167-468): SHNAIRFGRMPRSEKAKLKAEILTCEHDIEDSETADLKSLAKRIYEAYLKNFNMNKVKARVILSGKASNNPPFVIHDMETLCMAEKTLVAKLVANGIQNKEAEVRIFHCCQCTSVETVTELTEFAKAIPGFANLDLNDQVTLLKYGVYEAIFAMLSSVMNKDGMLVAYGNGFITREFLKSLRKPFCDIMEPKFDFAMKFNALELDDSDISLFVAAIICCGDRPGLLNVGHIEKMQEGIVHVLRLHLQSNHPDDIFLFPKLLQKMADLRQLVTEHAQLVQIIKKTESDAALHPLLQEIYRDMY
The experiment in a line: PPARα functional binding assay (CARLA, TR-FRET). The format is biochemical. As to conditions: SRC-1 peptide recruitment, 3 hours at RT, read-out: EC50 in the PPARα receptor binding assay. The protocol:
as §1, §2

Structures are written as SMILES.

In general, EC50 refers to the concentration giving half of the maximal effect. On to `Cc1oc(-c2ccc(Cl)c(F)c2)nc1COc1cccc(C(C)(C)C(=O)N2CCC[C@@H]2C(=O)O)c1` [Example 9, (R)-1-(2-{3-[2-(4-Chloro-3-fluoro-phenyl)-5-methyl-oxazol-4-yl-methoxy]-phenyl}-2-methyl-propionyl)-pyrrolidine-2-carboxylic acid], for which the EC50 in assay [1] is approximately 1800 nM; in assay [2] it was approximately 3 nM.
